Here are results for 41 compounds from US9169224B2, “Piperazinyl and piperidinyl ureas as modulators of fatty acid amide hydrolase” (Janssen Pharmaceutica NV, priority 2004, dated 2015).

The test has as its target FAAH (Homo sapiens (Human), UniProt O00519). Put plainly: Assay Method 1: FAAH assay, T84 cell homogenate, 3H-anandamide hydrolysis. The conditions noted are these: 3H-AEA tracer 200 nM, 1 h at rt. In kind it is biochemical. As to the method: T84 frozen pellets (contents of 1-4×15 cm culture dishes) were homogenized in 300 mL of FAAH assay buffer (125 mM Tris, 1 mM EDTA, 0.2% glycerol, 0.02% Triton X-100, 0.4 mM Hepes, pH 9). The assay mixture was prepared from 50 μL of the cell homogenate, 10 μL of the test compound, and 40 μL of anandamide [1-3H-ethanolamine] (^3H-AEA; Perkin-Elmer, 10.3 Ci/mmol), which was added last, for a final tracer concentration of 200 nM. The reaction mixture was incubated at rt for 1 hour (h). During the incubation, 96-well Multiscreen filter plates (catalog number MAFCNOB50; Millipore, Bedford, Mass., USA) were loaded with 25 μL of activated charcoal (Multiscreen column loader, catalog number MACL09625, Millipore) and washed once with 100 μL of MeOH. Also during the incubation, 96-well DYNEX MicroLite plates (catalog number NL510410) were loaded with 100 μL of MicroScint40 (catalog number 6013641, Packard Bioscience, Meriden, Conn., USA). After the 1 h incubation, 60 μL of the reaction mixture were transferred to the charcoal plates, which were then assembled on top of the DYNEX plates using Centrifuge Alignment Frames (catalog number MACF09604, Millipore). The unbound, labeled ethanolamine was centrifuged through to the bottom plate (5 min at 2000 rpm), which was preloaded with the scintillant, as described above. The plates were sealed and left at rt for 1 h before counting on a Hewlett Packard TopCount.

FAAH, sequence (O00519 whole entry): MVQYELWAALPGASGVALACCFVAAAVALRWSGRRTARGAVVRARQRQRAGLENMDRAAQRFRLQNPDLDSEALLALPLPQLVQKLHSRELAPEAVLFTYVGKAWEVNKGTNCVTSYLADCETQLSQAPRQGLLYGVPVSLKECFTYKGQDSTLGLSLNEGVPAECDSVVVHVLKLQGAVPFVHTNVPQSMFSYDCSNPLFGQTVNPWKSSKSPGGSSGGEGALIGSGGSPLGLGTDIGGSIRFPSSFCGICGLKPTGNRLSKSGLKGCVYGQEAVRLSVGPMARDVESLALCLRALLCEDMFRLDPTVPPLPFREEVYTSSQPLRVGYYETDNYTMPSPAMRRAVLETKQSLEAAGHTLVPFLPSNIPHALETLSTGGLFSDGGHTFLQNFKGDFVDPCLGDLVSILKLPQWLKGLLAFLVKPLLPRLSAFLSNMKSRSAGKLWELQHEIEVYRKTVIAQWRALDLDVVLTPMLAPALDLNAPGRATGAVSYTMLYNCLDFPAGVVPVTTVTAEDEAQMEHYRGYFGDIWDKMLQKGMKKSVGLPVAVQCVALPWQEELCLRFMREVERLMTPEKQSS

Regarding `O=C(Nc1ccccc1)N1CCN(Cc2cc3ccccc3s2)CC1` [Example 20, 4-Benzo[b]thiophen-2-ylmethyl-piperazine-1-carboxylic acid phenylamide], the IC50 is 19 nM. In other words, the double-digit nanomolar range.

In the case of `O=C(Nc1ccccc1)N1CCN(Cc2cnc3ccccc3c2)CC1` [Example 23, 4-Quinolin-3-ylmethyl-piperazine-1-carboxylic acid phenylamide], the midpoint of inhibition, the IC50, lay at 73 nM. Compared with the last compound, the IC50 is about 3.8-fold higher.

Take `O=C(Nc1ccccc1)N1CCN(Cc2ccc(I)cc2)CC1` [Example 24, 4-(4-Iodo-benzyl)-piperazine-1-carboxylic acid phenylamide]: half-maximal inhibition (IC50) was put at 52 nM.

As to `O=C(Nc1ccccc1)N1CCN(Cc2cccc(OCc3ccccc3)c2)CC1` [Example 25, 4-(3-Benzyloxy-benzyl)-piperazine-1-carboxylic acid phenylamide], the IC50 was 57 nM.

Compound `O=C(Nc1ccccc1)N1CCN(Cc2ccc(Br)cc2)CC1` [Example 27, 4-(4-Bromo-benzyl)-piperazine-1-carboxylic acid phenylamide] gave an IC50 of 69 nM.

`O=C(Nc1ccccc1)N1CCN(Cc2cccc(Oc3ccccc3)c2)CC1` [Example 28, 4-(3-Phenoxy-benzyl)-piperazine-1-carboxylic acid phenylamide]: the half-maximal inhibitory concentration (IC50) was 80 nM.

On to `O=C(Nc1ccccc1)N1CCN(Cc2ccc(F)c(Br)c2)CC1` [Example 29, 4-(3-Bromo-4-fluoro-benzyl)-piperazine-1-carboxylic acid phenylamide], for which the 50% inhibitory concentration (IC50) is 120 nM.

As to `O=C(Nc1ccccc1)N1CCN(Cc2ccc3c(c2)CCC3)CC1` [Example 30, 4-Indan-5-ylmethyl-piperazine-1-carboxylic acid phenylamide], half-maximal inhibition (IC50) required 180 nM.

Compound `O=C(Nc1ccccc1)N1CCN(Cc2csc3ccccc23)CC1` [Example 31, 4-Benzo[b]thiophen-3-ylmethyl-piperazine-1-carboxylic acid phenylamide] registered a 50% inhibitory concentration (IC50) of 200 nM.

Turning to `CCc1ccc(CN2CCN(C(=O)Nc3ccccc3)CC2)cc1` [Example 33, 4-(4-Ethyl-benzyl)-piperazine-1-carboxylic acid phenylamide], the IC50 was found to be 280 nM. This IC50 and that of the compound before are within 1.5-fold of each other.

As to `O=C(Nc1ccccc1)N1CCN(Cc2ccc3c(c2)OCCO3)CC1` [Example 35, 4-(2,3-Dihydro-benzo[1,4]dioxin-6-ylmethyl)-piperazine-1-carboxylic acid phenylamide], 460 nM corresponded to half-maximal inhibition (IC50).

Consider `COc1ccc(CN2CCN(C(=O)Nc3ccccc3)CC2)cc1` [Example 36, 4-(4-Methoxy-benzyl)-piperazine-1-carboxylic acid phenylamide], for which the IC50 is 470 nM. The IC50 values of the last two compounds are within 1.5-fold of each other.

In turn, `C=Cc1cccc(CN2CCN(C(=O)Nc3ccccc3)CC2)c1` [Example 37, 4-(3-Vinyl-benzyl)-piperazine-1-carboxylic acid phenylamide] displayed an IC50 of 590 nM.

Regarding `O=C(Nc1ccccc1)N1CCN(Cc2ccc3c(c2)CCO3)CC1` [Example 38, 4-(2,3-Dihydro-benzofuran-5-ylmethyl)-piperazine-1-carboxylic acid phenylamide], inhibition was half-maximal at 620 nM (IC50).

On to `COc1cccc(CN2CCN(C(=O)Nc3ccccc3)CC2)c1` [Example 39, 4-(3-Methoxy-benzyl)-piperazine-1-carboxylic acid phenylamide], for which half-maximal inhibition (IC50) required 1100 nM.

As to `O=C(Nc1ccccc1)N1CCN(Cc2cccc3ccccc23)CC1` [Example 40, 4-Naphthalen-1-ylmethyl-piperazine-1-carboxylic acid phenylamide], the IC50 stood at 1100 nM.

As for `Cc1cccc(CN2CCN(C(=O)Nc3ccccc3)CC2)c1` [Example 42, 4-(3-Methyl-benzyl)-piperazine-1-carboxylic acid phenylamide], the IC50 came out at 2000 nM. This IC50 is about 1.8-fold higher than that of the compound before.

In the case of `O=C(Nc1ccccc1)N1CCN(Cc2ccc3[nH]ccc3c2)CC1` [Example 43, 4-(1H-Indol-5-ylmethyl)-piperazine-1-carboxylic acid phenylamide], the 50% inhibitory concentration (IC50) was 4000 nM.

In turn, `COc1ccc(CN2CCN(C(=O)Nc3ccccc3)CC2)cc1OC` [Example 44, 4-(3,4-Dimethoxy-benzyl)-piperazine-1-carboxylic acid phenylamide] had a half-inhibitory concentration (IC50) of 4000 nM. This counts as single-digit micromolar.

Regarding `O=C(Nc1ccccc1)N1CCN(Cc2ccncc2)CC1` [Example 45, 4-Pyridin-4-ylmethyl-piperazine-1-carboxylic acid phenylamide], the 50% inhibitory concentration (IC50) is above 10000 nM.

With `O=C(Nc1ccccc1)N1CCN(Cc2ccccn2)CC1` [Example 46, 4-Pyridin-2-ylmethyl-piperazine-1-carboxylic acid phenylamide], the IC50 was above 10000 nM.

`O=C(Nc1ccccc1)N1CCN(Cc2cccnc2)CC1` [Example 47, 4-Pyridin-3-ylmethyl-piperazine-1-carboxylic acid phenylamide] returned an IC50 above 10000 nM.

Turning to `CC(C)Oc1ccc(CN2CCN(C(=O)Nc3ccccc3)CC2)cc1` [Example 48, 4-(4-Isopropoxy-benzyl)-piperazine-1-carboxylic acid phenylamide], the half-inhibitory concentration (IC50) came to 3500 nM.

For the compound `O=C(Nc1ccccc1)N1CCN(Cc2ccc(-c3ccccc3)cc2)CC1` [Example 49, 4-Biphenyl-4-ylmethyl-piperazine-1-carboxylic acid phenylamide], the IC50 came to 4500 nM.

In the case of `O=C(Nc1ccccc1)N1CCN(Cc2ccnc3ccccc23)CC1` [Example 50, 4-Quinolin-4-ylmethyl-piperazine-1-carboxylic acid phenylamide], inhibition was half-maximal at 3000 nM (IC50).

The compound `O=C(Nc1ccccc1)N1CCN(Cc2cccc3c2OCO3)CC1` [Example 51, 4-Benzo[1,3]dioxol-4-ylmethyl-piperazine-1-carboxylic acid phenylamide] yielded a half-inhibitory concentration (IC50) of 6000 nM.

Regarding `Cn1ccc2cc(CN3CCN(C(=O)Nc4ccccc4)CC3)ccc21` [Example 53, 4-(1-Methyl-1H-indol-5-ylmethyl)-piperazine-1-carboxylic acid phenylamide], half-maximal inhibition (IC50) required 230 nM.

The compound `O=C(Nc1ccccc1)N1CCN(Cc2ccc3cc(Cl)ccc3n2)CC1` [Example 54, 4-(6-Chloro-quinolin-2-ylmethyl)-piperazine-1-carboxylic acid phenylamide] returned a half-maximal inhibitory concentration (IC50) of 170 nM.

The compound `O=C(Nc1ccccc1)N1CCN(Cc2ccc3cccc(Cl)c3n2)CC1` [Example 55, 4-(8-Chloro-quinolin-2-ylmethyl)-piperazine-1-carboxylic acid phenylamide] registered an IC50 of 28 nM.

`O=C(Nc1ccccc1)N1CCN(Cc2cc3ccccc3nc2Cl)CC1` [Example 56, 4-(2-Chloro-quinolin-3-ylmethyl)-piperazine-1-carboxylic acid phenylamide] yielded an IC50 of 9000 nM.

Compound `O=C(Nc1ccc(F)cc1)N1CCN(Cc2ccc3ccccc3n2)CC1` [Example 58, 4-Quinolin-2-ylmethyl-piperazine-1-carboxylic acid (4-fluoro-phenyl)-amide] had an IC50 of 100 nM.

The compound `O=C(Nc1ccccc1)N1CCN(Cc2cccc(Oc3ccc(Cl)cc3)c2)CC1` [Example 60, 4-[3-(4-Chloro-phenoxy)-benzyl]-piperazine-1-carboxylic acid phenylamide] showed an IC50 of 9 nM. This IC50 is about 11-fold lower than that of the compound before.

`O=C(Nc1ccccc1)N1CCN(Cc2cccc(Oc3ccc(Cl)c(Cl)c3)c2)CC1` [Example 61, 4-[3-(3,4-Dichloro-phenoxy)-benzyl]-piperazine-1-carboxylic acid phenylamide]: inhibition was half-maximal at 20 nM (IC50).

`Cc1ccc(Oc2cccc(CN3CCN(C(=O)Nc4ccccc4)CC3)c2)cc1` [Example 62, 4-(3-p-Tolyloxy-benzyl)-piperazine-1-carboxylic acid phenylamide] registered a half-inhibitory concentration (IC50) of 18 nM.

For the compound `CC(C)(C)c1ccc(Oc2cccc(CN3CCN(C(=O)Nc4ccccc4)CC3)c2)cc1` [Example 63, 4-[3-(4-tert-Butyl-phenoxy)-benzyl]-piperazine-1-carboxylic acid phenylamide], it took 69 nM to reach half-maximal inhibition (IC50).

For the compound `O=C(Nc1ccccc1)N1CCN(Cc2cccc(Oc3cccc(C(F)(F)F)c3)c2)CC1` [Example 64, 4-[3-(3-Trifluoromethyl-phenoxy)-benzyl]-piperazine-1-carboxylic acid phenylamide], 220 nM corresponded to half-maximal inhibition (IC50). This IC50 is about 3.2-fold higher than that of the compound before.

Regarding `COc1ccc(Oc2cccc(CN3CCN(C(=O)Nc4ccccc4)CC3)c2)cc1` [Example 65, 4-[3-(4-Methoxy-phenoxy)-benzyl]-piperazine-1-carboxylic acid phenylamide], the IC50 was 9 nM.

For `COc1ccc2cc(CN3CCN(C(=O)Nc4ccccc4)CC3)ccc2c1` [Example 66, 4-(6-Methoxy-naphthalen-2-ylmethyl)-piperazine-1-carboxylic acid phenylamide], the IC50 came out at 1600 nM.

For `O=C(Nc1ccccc1)N1CCN(Cc2cc3ccccc3c3ccccc23)CC1` [Example 67, 4-Phenanthren-9-ylmethyl-piperazine-1-carboxylic acid phenylamide], the half-inhibitory concentration (IC50) is 8000 nM.

`O=C(Nc1ccccc1)N1CCN(Cc2cnc3ccc(Cl)cc3c2)CC1` [Example 69, 4-(6-Chloro-quinolin-3-ylmethyl)-piperazine-1-carboxylic acid phenylamide] registered a 50% inhibitory concentration (IC50) of 23 nM. Against the preceding compound, the IC50 is about 350-fold lower.

`O=C(Nc1ccccc1)N1CCN(Cc2cccc(-c3ccccc3)c2)CC1` [Example 70, 4-Biphenyl-3-ylmethyl-piperazine-1-carboxylic acid phenylamide] registered a half-inhibitory concentration (IC50) of 410 nM.
